± gives the expanded uncertainty stated by the source.
How the values were obtained:
[1] = DTA; for Normal melting temperature: Crystal; for Triple point temperature: Crystal 2
[2] = Molar enthalpy of transition or fusion; details: DSC

SMILES | Normal melting temperature [1] | Molar enthalpy of transition or fusion ([2]; Crystal) | Triple point temperature [1] | Molar enthalpy of transition or fusion ([2]; Crystal 2)
O=C(O)CCCCC(=O)O [1,6-hexanedioic acid] | 153.00 ± 4 °C | 9.08 ± 0.239 kcal/mol | – | –
O=C(O)CCCCCCCCC(=O)O [1,10-decanedioic acid] | 132.00 ± 4 °C | 11 ± 0.287 kcal/mol | – | –
CC(CO)(CO)C(=O)O [2,2-bis(hydroxymethyl)propanoic acid] | – | – | 458.15 ± 1 K | 9.26 ± 0.263 kcal/mol
NC(CO)(CO)CO [2-amino-2-(hydroxymethyl)-1,3-propanediol] | – | – | 405.15 ± 1 K | 8.25 ± 0.232 kcal/mol
O=C(O)/C=C\C(=O)O [cis-1,4-butenedioic acid] | 135.00 ± 8 °C | 6.52 ± 0.194 kcal/mol | – | –
COC(=O)c1ccc(C(=O)OC)cc1 [dimethyl 1,4-benzenedicarboxylate] | 142.00 ± 1 °C | 7.89 ± 0.232 kcal/mol | – | –
O=C1OC(=O)c2ccccc21 [isobenzofuran-1,3-dione] | 131.00 ± 1 °C | 5.63 ± 0.177 kcal/mol | – | –
